Square brackets hold non-standard residues; d marks the D form. Ends that are not written are not given here. Peptide text beside a SMILES is read from it. pS = N[C@@H](COP(=O)(O)O)C(=O)O
How the values were obtained:
[1] = target: T1, 14-3-3ζ (Homo sapiens, UniProt P63104); experiment: ITC of Cby peptides titrated into 14-3-3ζ; type: binding; settings: for n (binding stoichiometry of monomeric 14-3-3 and Cby peptide): 25°C; for T∆S / ∆G / ∆H / TΔS / ΔG / ΔH: 298.15 K; for T∆S / ∆G / ∆H: duplicate set (S1 Table); for TΔS / ΔG / ΔH: pH 6.8, Table 1 set of duplicate experiments
T1 construct: Both full-length 14-3-3ζ and 14-3-3ζΔC12 were expressed as N-terminally His-tagged protein; His tag (TEV-cleavable) (N, cleaved yes); made in house; host or cells: Escherichia coli BL21 (DE3) pLysS
T1 sequence (P63104 1-245): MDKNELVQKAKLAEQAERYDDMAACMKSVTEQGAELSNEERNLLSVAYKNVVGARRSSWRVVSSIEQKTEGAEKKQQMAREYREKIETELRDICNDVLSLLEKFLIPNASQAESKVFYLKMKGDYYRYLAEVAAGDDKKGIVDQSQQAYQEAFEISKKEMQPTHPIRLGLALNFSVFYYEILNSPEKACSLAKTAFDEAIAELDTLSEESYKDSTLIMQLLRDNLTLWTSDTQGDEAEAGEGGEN
Text: The human14-3-3ζ ORF purchased from GeneCopoeia was transferred into Gateway pDEST17 vector (Invitrogen). The 14-3-3ζΔC12, where the 12 C-terminal residues were deleted, was then generated from the full-length construct using QuikChange II Site-Directed Mutagenesis Kit (Strategene). Both full-length 14-3-3ζ and 14-3-3ζΔC12 were expressed as N-terminally His-tagged protein in Escherichia coli (E. coli) BL21 (DE3) pLysS in M9 medium. For unlabeled protein, protein expression was induced at an O.D.600 of 0.9 by adding 0.75 mM IPTG at 18°C for 24 h. The ^15N, ^13C, ^2H labeled 14-3-3ζΔC12 was produced by growing E. coli in deuterated M9 medium. Cells adapted to 70% D2O were used to inoculate a 1 L culture of M9 prepared in 100% D2O. Cells were grown at 37°C and overexpression was induced at an O.D.600 of 0.6 with 0.75 mM IPTG. After a 60-h induction at 18°C, the cells were harvested. All 14-3-3ζ constructs used in this study were purified from the crude lysate by affinity chromatography using Ni Sepharose Fast Flow beads (Amersham Biosciences). The tag was then cleaved by overnight incubation with His-tagged tobacco etch virus (TEV) protease at 25°C. The cleaved 14-3-3ζ, which retains an N-terminal glycine, was purified by passing the mixture through Ni Sepharose Fast Flow beads. The final yields for the 14-3-3ζ proteins were ~50 mg per L of M9 media (including deuterated media).
The Cby peptides used in this study were purchased from GenScript USA Inc. and the TUFTS University Core Facility. From GenScript USA Inc.: Cby 13-mer (NH2-^12KTPPRKSASLSNL^24-COOH), Cby S20D 13-mer (NH2-^12KTPPRKSADLSNL^24-COOH), Cby S20E 13-mer (NH2-^12KTPPRKSAELSNL^24-COOH), pCby 13-mer (NH2-^12KTPPRKSApSLSNL^24-COOH) and pCby 18-mer ((NH2-^12KTPPRKSApSLSNLHSLDR^29-COOH). From TUFTS: pCby 7-mer (Ac-^16RKSApSLS^22-NH2), pCby 11-mer (NH2-^12KTPPRKSApSLS^22-NH2), pCby S22P 7-mer (Ac-^16RKSApSLP^22-NH2), pCby S22P 13-mer (NH2-^12KTPPRKSApSLPNL^24-COOH) and pCby S22P 18-mer ([…]). Peptides were dissolved and dialyzed in 50 mM sodium phosphate, 100 mM NaCl at pH 6.8 for ITC and NMR experiments.
ITC experiments were performed on a VP-ITC instrument (MicroCal) at 25°C. The protein and peptide samples were dialyzed into a buffer containing 50 mM sodium phosphate, 100 mM NaCl, 1 mM DTT at pH 6.8 and degassed before the experiments. In a typical experiment, 5 μL aliquots of ~1–2 mM peptide were titrated stepwise into the 1.4 mL sample cell containing ~100–200 μM 14-3-3ζ. The association constant (Ka), molar binding stoichiometry (n) and the binding enthalpy (ΔH), entropy (ΔS) and Gibbs free energy (ΔG) were determined by fitting the binding isotherm to a one-site model with MicroCal Origin7 software. All ITC experiments were performed in duplicate. A duplicate set of thermodynamic derived binding parameters are found in S1 Table. Peptide and protein concentrations were determined from amino acid analysis (Amino Acid Analysis Facility, SickKids, Toronto, ON).

[2] = target: T2, 14-3-3ζ (human, full-length) (human, UniProt P63104 1-245); experiment: ITC; VP-ITC, 25°C; ~1-2 mM peptide titrated in 5 uL aliquots into ~100-200 uM 14-3-3ζ in the cell; 50 mM sodium phosphate, 100 mM NaCl, 1 mM DTT, pH 6.8; one-site model; in duplicate; settings: both partners purified
T2 construct: N-terminal glycine retained after TEV cleavage of the His tag; 14-3-3ζ, human, ORF bought from GeneCopoeia, in Gateway pDEST17; full-length; Dimer in the crystal; the ITC stoichiometry counts on the 14-3-3 monomer; also called WT 14-3-3ζ; source: E. coli BL21 (DE3) pLysS, purified (Ni Sepharose, TEV cleavage, second Ni Sepharose pass); not shown: His tag, N-terminal, cleaved
T2 sequence: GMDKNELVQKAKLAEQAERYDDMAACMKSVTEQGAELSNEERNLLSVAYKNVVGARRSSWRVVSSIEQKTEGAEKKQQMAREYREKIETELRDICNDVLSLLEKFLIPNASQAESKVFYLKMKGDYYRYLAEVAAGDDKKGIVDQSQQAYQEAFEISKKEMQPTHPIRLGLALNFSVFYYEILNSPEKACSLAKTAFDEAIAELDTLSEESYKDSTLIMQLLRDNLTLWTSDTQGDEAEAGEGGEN

[3] = 50 mM sodium phosphate, 100 mM NaCl, 1 mM DTT, pH 6.8, one-site model, Table 1 set of duplicate experiments
[4] = pH 6.8, duplicate set (S1 Table)

Row | Molecule | n (binding stoichiometry of monomeric 14-3-3 and Cby peptide) [1, 3] | n (binding stoichiometry of monomeric 14-3-3 and Cby peptide) [1, 4] | T∆S [1] [kcal/mol] | ∆G [1] [kcal/mol] | ∆H [1] [kcal/mol] | TΔS [1] [kcal/mol] | ΔG [1] [kcal/mol] | ΔH [1] [kcal/mol] | greater affinity compared to the Cby 7-mer (fold, in words) [1] | Kd ([1]; 25°C (298.15 K), 50 mM sodium phosphate, 100 mM NaCl, 1 mM DTT, pH 6.8, one-site model, Table 1 set of duplicate experiments) [µM] | Kd [2] [µM] | dH [2] [kcal/mol] | stoichiometry N [2]
1 | CC(=O)N[C@@H](CCCNC(=N)N)C(=O)N[C@@H](CCCCN)C(=O)N[C@@H](CO)C(=O)N[C@@H](C)C(=O)N[C@@H](COP(=O)(O)O)C(=O)N[C@@H](CC(C)C)C(=O)N1CCC[C@H]1C(N)=O [Cby 7-mer S22P] (Ac-RKSA[pS]LP-NH2) | 1.03 | 1.02 | 1.29 | -7.50 ± 0.02 | -6.21 ± 0.02 | 1.39 | -7.55 ± 0.01 | -6.16 ± 0.01 |  |  |  |  | 
2 | CC(C)C[C@H](NC(=O)[C@H](COP(=O)(O)O)NC(=O)[C@H](C)NC(=O)[C@H](CO)NC(=O)[C@H](CCCCN)NC(=O)[C@H](CCCNC(=N)N)NC(=O)[C@@H]1CCCN1C(=O)[C@@H]1CCCN1C(=O)[C@@H](NC(=O)[C@@H](N)CCCCN)[C@@H](C)O)C(=O)N[C@@H](CO)C(N)=O [Cby 11-mer] (H-KTPPRKSA[pS]LS-NH2) | 0.95 | 0.96 | 3.22 | -6.49 ± 0.02 | -3.27 ± 0.02 | 3.23 | -6.49 ± 0.02 | -3.26 ± 0.02 | more than two-fold | 17.5 ± 0.6 |  |  | 
3 | CC(C)C[C@H](NC(=O)[C@H](CC(N)=O)NC(=O)[C@@H]1CCCN1C(=O)[C@H](CC(C)C)NC(=O)[C@H](COP(=O)(O)O)NC(=O)[C@H](C)NC(=O)[C@H](CO)NC(=O)[C@H](CCCCN)NC(=O)[C@H](CCCNC(=N)N)NC(=O)[C@@H]1CCCN1C(=O)[C@@H]1CCCN1C(=O)[C@@H](NC(=O)[C@@H](N)CCCCN)[C@@H](C)O)C(=O)O [Cby 13-mer S22P] (H-KTPPRKSA[pS]LPNL-OH) | 1.06 | 1.02 | 3.33 | -8.03 ± 0.02 | -4.70 ± 0.01 | 3.49 | -8.13 ± 0.02 | -4.64 ± 0.01 |  |  |  |  | 
4 | CC(=O)N[C@@H](CCCNC(=N)N)C(=O)N[C@@H](CCCCN)C(=O)N[C@@H](CO)C(=O)N[C@@H](C)C(=O)N[C@@H](COP(=O)(O)O)C(=O)N[C@@H](CC(C)C)C(=O)N[C@@H](CO)C(N)=O [Cby 7-mer] (Ac-RKSA[pS]LS-NH2) | 1.01 | 0.94 | 2.20 | -5.90 ± 0.02 | -3.70 ± 0.04 | 2.60 | -5.95 ± 0.03 | -3.35 ± 0.06 |  |  |  |  | 
5 | KTPPRKSA[pS]LPNL (Chibby (Cby), human, residues 12-24 with S22P; free NH2 and COOH ends; also called Cby 13-mer S22P; source: synthetic peptide, bought: TUFTS University Core Facility) [pCby S22P 13-mer] |  |  |  |  |  |  |  |  |  |  | 1.1 | -4.64 ± 0.01 | 1.06
6 | KTPPRKSA[pS]LS-NH2 (N-terminus assumed; SMILES CC(C)C[C@H](NC(=O)[C@H](COP(=O)(O)O)NC(=O)[C@H](C)NC(=O)[C@H](CO)NC(=O)[C@H](CCCCN)NC(=O)[C@H](CCCNC(=N)N)NC(=O)[C@@H]1CCCN1C(=O)[C@@H]1CCCN1C(=O)[C@@H](NC(=O)[C@@H](N)CCCCN)[C@@H](C)O)C(=O)N[C@@H](CO)C(N)=O, Chibby (Cby), human, residues 12-22; free NH2 end; source: synthetic peptide, bought: TUFTS University Core Facility) [pCby 11-mer] |  |  |  |  |  |  |  |  |  |  | 17.5 | -3.26 ± 0.02 | 0.95
7 | Ac-RKSA[pS]LS-NH2 (SMILES CC(=O)N[C@@H](CCCNC(=N)N)C(=O)N[C@@H](CCCCN)C(=O)N[C@@H](CO)C(=O)N[C@@H](C)C(=O)N[C@@H](COP(=O)(O)O)C(=O)N[C@@H](CC(C)C)C(=O)N[C@@H](CO)C(N)=O, also called 16RKSA(pS)LS22; pCby WT 7-mer; source: synthetic peptide, bought: TUFTS University Core Facility) [pCby 7-mer] |  |  |  |  |  |  |  |  |  |  | 43.5 | -3.35 ± 0.06 | 1.01
8 | Ac-RKSA[pS]LP-NH2 (SMILES CC(=O)N[C@@H](CCCNC(=N)N)C(=O)N[C@@H](CCCCN)C(=O)N[C@@H](CO)C(=O)N[C@@H](C)C(=O)N[C@@H](COP(=O)(O)O)C(=O)N[C@@H](CC(C)C)C(=O)N1CCC[C@H]1C(N)=O, Chibby (Cby), human, residues 16-22 with S22P; also called Cby 7-mer S22P; 16RKSA(pS)LP22; source: synthetic peptide, bought: TUFTS University Core Facility) [pCby S22P 7-mer] |  |  |  |  |  |  |  |  |  |  | 2.9 | -6.16 ± 0.01 | 1.03
9 | KTPPRKSA[pS]LSNAHSLDR (Chibby (Cby), human, residues 12-29 with L24A; Not in the methods' list of peptides; also called Cby L24A 18-mer; source: synthetic peptide) [Cby 18-mer L24A (phosphorylated)] |  |  |  |  |  |  |  |  |  |  | 21.3 | -1.56 ± 0.05 | 0.99

From PMC4409382, “Structural Analysis of the 14-3-3ζ/Chibby Interaction Involved in Wnt/β-Catenin Signaling” (PLoS ONE, 2015)
